Tested on: 931267-113-T-J1-PDC KRAS spheroid with HUVEC/MSC, viability
Experiment: Anticancer human tumor 931267-113-T-J1-PDC patient-derived colon adenocarcinoma cell line growth inhibition [KRAS2]
Details: for IC50: curve of first compound; for viability, T/C: stronger effect = lower value
Outline: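 Combination screen of spheroid viability in tumor-cell co-cultures with endothelial (HUVEC) and mesenchymal stem cell stroma. Each agent was tested in half-log dilutions, topping at clinical Cmax or at 10 microM without a known Cmax.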

[1] = second compound 0.1 µM, first compound 0.0316 µM
[2] = second compound 0.1 µM, first compound 0.1 µM
[3] = second compound 0.316 µM, first compound 0.0316 µM
[4] = second compound 0.316 µM, first compound 0.1 µM
[5] = second compound 1 µM, first compound 0.0316 µM
[6] = second compound 1 µM, first compound 0.1 µM
[7] = second compound 3.16 µM, first compound 0.0316 µM
[8] = second compound 3.16 µM, first compound 0.1 µM
[9] = second compound 10 µM, first compound 0.0316 µM
[10] = second compound 10 µM, first compound 0.1 µM
[11] = second compound 0.1 µM, first compound 0.316 µM
[12] = second compound 0.1 µM, first compound 1 µM
[13] = second compound 0.1 µM, first compound 3.16 µM
[14] = second compound 0.1 µM, first compound 10 µM
[15] = second compound 0.316 µM, first compound 0.316 µM
[16] = second compound 0.316 µM, first compound 1 µM
[17] = second compound 0.316 µM, first compound 3.16 µM
[18] = second compound 0.316 µM, first compound 10 µM
[19] = second compound 1 µM, first compound 0.316 µM
[20] = second compound 1 µM, first compound 1 µM
[21] = second compound 1 µM, first compound 3.16 µM
[22] = second compound 1 µM, first compound 10 µM
[23] = second compound 3.16 µM, first compound 0.316 µM
[24] = second compound 3.16 µM, first compound 1 µM
[25] = second compound 3.16 µM, first compound 3.16 µM
[26] = second compound 3.16 µM, first compound 10 µM
[27] = second compound 10 µM, first compound 0.316 µM
[28] = second compound 10 µM, first compound 1 µM
[29] = second compound 10 µM, first compound 3.16 µM
[30] = second compound 10 µM, first compound 10 µM
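Further: compound exposure lasted 7 days before the readout.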
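Wherever viability, T/C is given: 100% = DMSO vehicle control viability.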

Row | SMILES | IC50 (second compound 0.1 µM) [nM] | IC50 (second compound 0.316 µM) [nM] | IC50 (second compound 1 µM) [nM] | IC50 (second compound 3.16 µM) [nM] | IC50 (second compound 10 µM) [nM] | viability, T/C [1] [%] | viability, T/C [2] [%] | viability, T/C [3] [%] | viability, T/C [4] [%] | viability, T/C [5] [%] | viability, T/C [6] [%] | viability, T/C [7] [%] | viability, T/C [8] [%] | viability, T/C [9] [%] | viability, T/C [10] [%] | viability, T/C [11] [%] | viability, T/C [12] [%] | viability, T/C [13] [%] | viability, T/C [14] [%] | viability, T/C [15] [%] | other results
1 | CC(C)n1nc(-c2ccc3oc(N)nc3c2)c2c(N)ncnc21 + C=CC(=O)N1CCN(c2nc(=O)n(-c3c(C)ccnc3C(C)C)c3nc(-c4c(O)cccc4F)c(F)cc23)C(C)C1 | 10.8 | 9.04 | 7.94 | 9.47 | 8.24 | 34.3 | 26.7 | 33.6 | 27.2 | 27.9 | 25.1 | 28.9 | 22.3 | 25.1 | 22 | – | – | – | – | – | viability, T/C (second compound 0.1 µM, first compound 0.000316 µM): 106%; viability, T/C (second compound 0.1 µM, first compound 0.001 µM): 89.4%; viability, T/C (second compound 0.1 µM, first compound 0.00316 µM): 83.5%; viability, T/C (second compound 0.1 µM, first compound 0.01 µM): 48.2%; viability, T/C (second compound 0.316 µM, first compound 0.000316 µM): 116%; viability, T/C (second compound 0.316 µM, first compound 0.001 µM): 75.7%; viability, T/C (second compound 0.316 µM, first compound 0.00316 µM): 77.4%; viability, T/C (second compound 0.316 µM, first compound 0.01 µM): 44.8%; viability, T/C (second compound 1 µM, first compound 0.000316 µM): 100%; viability, T/C (second compound 1 µM, first compound 0.001 µM): 117%; viability, T/C (second compound 1 µM, first compound 0.00316 µM): 87.6%; viability, T/C (second compound 1 µM, first compound 0.01 µM): 41.2%; viability, T/C (second compound 3.16 µM, first compound 0.000316 µM): 108%; viability, T/C (second compound 3.16 µM, first compound 0.001 µM): 94.4%; viability, T/C (second compound 3.16 µM, first compound 0.00316 µM): 95.6%; viability, T/C (second compound 3.16 µM, first compound 0.01 µM): 47.1%; viability, T/C (second compound 10 µM, first compound 0.000316 µM): 101%; viability, T/C (second compound 10 µM, first compound 0.001 µM): 86.4%; viability, T/C (second compound 10 µM, first compound 0.00316 µM): 69.7%; viability, T/C (second compound 10 µM, first compound 0.01 µM): 48.4%
2 | CC1OCC2(CCN(c3cnc(Sc4ccnc(N)c4Cl)c(N)n3)CC2)C1N (stereo not given) + COc1cc2nc(C)nc(NC(C)c3cc(N)cc(C(F)(F)F)c3)c2cc1OC1CCOC1 | > 10000 | > 10000 | > 10000 | > 10000 | < 31.6 | 79.3 | 59 | 62.2 | 56.1 | 70.6 | 72.8 | 70.7 | 49.8 | 3.02 | 2.08 | 75.5 | 77.5 | 68.3 | 90.7 | 65 | viability, T/C [16]: 68.1%; viability, T/C [17]: 70.6%; viability, T/C [18]: 77.9%; viability, T/C [19]: 56%; viability, T/C [20]: 63.1%; viability, T/C [21]: 79%; viability, T/C [22]: 64.9%; viability, T/C [23]: 51.8%; viability, T/C [24]: 54.9%; viability, T/C [25]: 61.4%; viability, T/C [26]: 67.6%; viability, T/C [27]: 4.77%; viability, T/C [28]: 2.12%; viability, T/C [29]: 2.08%; viability, T/C [30]: 0.42%
3 | CCNC(=O)CC1N=C(c2ccc(Cl)cc2)c2cc(OC)ccc2-n2c(C)nnc21 (stereo not given) + C=CC(=O)N1CCN(c2nc(OCC3CCCN3C)nc3c2CCN(c2cccc4cccc(C)c24)C3)CC1CC#N | 2560 | 1430 | 1030 | < 31.6 | – | 92.5 | 81.4 | 72.4 | 74.7 | 82.1 | 69.1 | 0.31 | 0.3 | – | – | 70.1 | 60.6 | 45.4 | 41.6 | 66.5 | IC50 (second compound 0.0316 µM): 3970 nM; viability, T/C (second compound 0.0316 µM, first compound 0.0316 µM): 92%; viability, T/C (second compound 0.0316 µM, first compound 0.1 µM): 80.3%; viability, T/C (second compound 0.0316 µM, first compound 0.316 µM): 80.2%; viability, T/C (second compound 0.0316 µM, first compound 1 µM): 51.9%; viability, T/C (second compound 0.0316 µM, first compound 3.16 µM): 61%; viability, T/C (second compound 0.0316 µM, first compound 10 µM): 38.1%; viability, T/C [16]: 52.9%; viability, T/C [17]: 43.7%; viability, T/C [18]: 38.9%; viability, T/C [19]: 61.1%; viability, T/C [20]: 51.1%; viability, T/C [21]: 39.6%; viability, T/C [22]: 31.5%; viability, T/C [23]: 0.26%; viability, T/C [24]: 0.17%; viability, T/C [25]: 0.16%; viability, T/C [26]: 0.17%
4 | COc1cc2nccc(Oc3ccc(NC(=O)C4(C(=O)Nc5ccc(F)cc5)CC4)cc3)c2cc1OC + CC1OCC2(CCN(c3cnc(Sc4ccnc(N)c4Cl)c(N)n3)CC2)C1N | > 10000 | 2790 | 3060 | 4530 | 2930 | 87 | 116 | 81.9 | 91.9 | 92.8 | 95.8 | 78.6 | 99 | 99.2 | 101 | 102 | 88.8 | 51.4 | 66.6 | 84.9 | viability, T/C [16]: 99.5%; viability, T/C [17]: 45.1%; viability, T/C [18]: 37.4%; viability, T/C [19]: 86.3%; viability, T/C [20]: 88.2%; viability, T/C [21]: 48.1%; viability, T/C [22]: 49.5%; viability, T/C [23]: 91.3%; viability, T/C [24]: 92.1%; viability, T/C [25]: 57.5%; viability, T/C [26]: 33.5%; viability, T/C [27]: 93.3%; viability, T/C [28]: 86.5%; viability, T/C [29]: 47.1%; viability, T/C [30]: 30.5%
5 | COC(=O)c1ccc2c(C(=Nc3ccc(N(C)C(=O)CN4CCN(C)CC4)cc3)c3ccccc3)c(O)[nH]c2c1 + CC1OCC2(CCN(c3cnc(Sc4ccnc(N)c4Cl)c(N)n3)CC2)C1N | 700 | 251 | < 31.6 | < 31.6 | < 31.6 | 69.4 | 68.6 | 63.5 | 67.5 | 51.2 | 43.6 | 48.1 | 37 | 37.6 | 32.4 | 57.1 | 44.4 | 0.37 | 0.35 | 38.7 | viability, T/C [16]: 34.3%; viability, T/C [17]: 0.32%; viability, T/C [18]: 0.28%; viability, T/C [19]: 44%; viability, T/C [20]: 4.05%; viability, T/C [21]: 0.33%; viability, T/C [22]: 0.32%; viability, T/C [23]: 25%; viability, T/C [24]: 2.45%; viability, T/C [25]: 0.48%; viability, T/C [26]: 0.38%; viability, T/C [27]: 13.2%; viability, T/C [28]: 0.77%; viability, T/C [29]: 0.35%; viability, T/C [30]: 0.45%
6 | Cn1nccc1Nc1nccc(-c2cc3c(s2)C(C)(C)N(CCN2CCOCC2)C3=O)n1 + COc1cc2nc(C)nc(NC(C)c3cc(N)cc(C(F)(F)F)c3)c2cc1OC1CCOC1 | 451 | 517 | 464 | 229 | < 31.6 | 80.2 | 95.3 | 84.6 | 88.2 | 79.8 | 73.6 | 71.3 | 68.4 | 3.64 | 2.94 | 54 | 29.5 | 9.12 | 3.49 | 62.7 | viability, T/C [16]: 31.2%; viability, T/C [17]: 4.2%; viability, T/C [18]: 2.13%; viability, T/C [19]: 62.6%; viability, T/C [20]: 26.2%; viability, T/C [21]: 8.33%; viability, T/C [22]: 2.61%; viability, T/C [23]: 42.4%; viability, T/C [24]: 15.5%; viability, T/C [25]: 3.42%; viability, T/C [26]: 2.28%; viability, T/C [27]: 2.42%; viability, T/C [28]: 1.97%; viability, T/C [29]: 0.91%; viability, T/C [30]: 0.28%

— PubChem BioAssay AID1963863 (Molecular Pharmacology Branch, DTP, NCI, 2024)
